# Source: patent publication US11413315B2, “Neural stem cell-mediated cancer treatment” (priority 2018, dated 2022)
# What was measured:
# OVCAR8.EGFP.ffluc cells = experiment: In vitro synergy experiment, Chou-Talalay analysis; type: cell-based, human; conditions: cisplatin <1 μM
# Method: Tumor cells were plated at 3×10^3 cells per well in 96-well plates. Select wells also received NSC.CRAd-Survivin-pk7 at either a 1:1, 1:10, or 1:100 ratio. […] Cultures were incubated for 3 more days. Upon collection, media were replaced with that containing D-luciferin ([…]), and after a 10-min incubation, the resulting luminescent signal was quantified using a SpectraMax M3 microplate reader (Molecular Devices, CA, USA). Results are expressed as the percentage of surviving cells determined by comparing the luciferase signal of each sample relative to untreated control samples considered 100% viable. […] Each condition was replicated in quadruplet, and the experiment was conducted twice.
# [1] = test system: OVCAR8.EGFP flank xenografts; experiment: Subcutaneous flank OVCAR8 xenograft model; type: in vivo, mouse
# Method: Female athymic nude mice 6-8 weeks of age (Charles River) were maintained under specific pathogen-free conditions at the COH Animal Resource Center, and all procedures were reviewed and approved by the COH Animal Care Committee. A subcutaneous flank xenograft model in nude mice was established using an EGFP and firefly luciferase-expressing ovarian cancer cell line, 2×10^6 OVCAR8.EGFP.ffluc. […] The mice were treated for […] with 1 week off in between each cycle. […] Tumor burden was evaluated via caliper measurements twice weekly over a 5-week period.
# Mice began treatments approximately 2 weeks after injection of 5 million OVCAR8.EGFP cells, when the tumors were on average 0.5 cm in diameter (Table 3). The mice were treated for two cycles. Each cycle was 2 weeks long, consisting of 1 week on therapy and 1 week off. Tumor burden was evaluated via caliper measurements twice weekly over a 5-week period.
# OVCAR8 peritoneal tumors = experiment: PCR biodistribution of NSCs and virus in peritoneal tumors with or without cisplatin; type: in vivo; conditions: 2 days after administration, three tumors per mouse
# Method: Female NOD-SCID mice (Jackson Labs) that were 6-8 weeks old were inoculated with 2 million OVCAR8.eGFP.ffluc cells via i.p. injection. After 3 weeks, mice (n=3) were administered i.p. 2×10^6 Dil-labeled NSC-CRAd-Survivin-pk7. Two days after NSC injection, tumors were harvested. Three tumors per mouse were digested using proteinase K, DNA was extracted (DNA Extraction from fixed tissues kit, Puragene), quantified using a nanodrop, then amplified by PCR using primers for v-Myc and hexon to test for the presence of NSCs and viral particles respectively. GAPDH was used as a loading control (351 bp). DNA purified from unmodified NSCs and NSC-CRAd-Survivin-pk7 was used as a positive control for PCR amplification of the v-Myc gene (replicon size 170 bp), and hexon (179 bp) respectively. Pure water was used as a negative control. PCR products were analyzed by agarose gel electrophoresis and staining of DNA bands with ethidium bromide. […] Sections (10 μm thick) were collected on positively charged slides (Thermo Fisher Scientific), immunostained for hexon (Goat Anti-Adenovirus FITC Conjugated Polyclonal Antibody, AB1056F, Millipore), counterstained with DAPI (1 ug/mL, Sigma), then imaged using the Zeiss Axio Observer Z1 fluorescence microscope (ZEISS Microscopy). […]
# [2] = test system: survivin expression in OVCAR8 cell line; experiment: RT-PCR analysis of survivin expression after cisplatin, OVCAR8; type: cell-based, human; conditions: up to 2 days of cisplatin exposure; data not shown
# [3] = test system: survivin expression in SKOV3 cell line; experiment: RT-PCR analysis of survivin expression after cisplatin, SKOV3; type: cell-based, human; conditions: up to 2 days of cisplatin exposure; data not shown
compound,measurement,setting,value
N.N.[Cl][Pt][Cl] [cisplatin],effect of low doses of cisplatin on OVCAR8 tumor cells,OVCAR8.EGFP.ffluc cells,unaffected
same,tumor volume doubling time after the first treatment,[1]; control 7 days,13 days
same,tumor volume doubling time after the second treatment,[1]; control 15 days,not significantly different from that of the saline control
same,hexon DNA detected in tumors (virus),OVCAR8 peritoneal tumors,Neither hexon nor v-myc DNA was detected
same,v-myc DNA detected in tumors (NSCs),OVCAR8 peritoneal tumors,Neither hexon nor v-myc DNA was detected
same,survivin expression after cisplatin exposure,[2],did not significantly increase
same,survivin expression after cisplatin exposure,[3],did not significantly increase
